# Data: US20050255131A1, “Clindamycin compositions and delivery system therefor” (priority 2004, published 2005)
# Assays:
# [1] = Solubility of clindamycin phosphate in water, glycerin and water/glycerin co-solvent; type: physicochemical
# Description: For the clindamycin phosphate solution, a maximum of about 6% salt is soluble in water. This solution is not stable upon long-term storage at elevated temperatures. In order to utilize the chamber in a chamber delivery system wherein the contents of a small chamber are combined with the contents of a larger chamber, compositions containing a concentration of clindamycin phosphate higher than 6% are desirable. In accordance with the present disclosure, solutions containing concentrations of clindamycin in excess of 6% in a minimum amount of water may be prepared by using co-solvents such as glycerin. Clindamycin phosphate by itself is not soluble in glycerin alone. […] Thus, the present compositions may contain a solution of water, clindamycin and glycerin, wherein the amount of water is insufficient alone to solubilize the clindamycin. The term “solubilize” as used with respect to solubilizing clindamycin refers to the ability to dissolve clindamycin and optionally with heating and stirring and maintaining clindamycin in solution at room temperature for at least 24 hours. […] By increasing the concentration of clindamycin in solution by means of a co-solvent such as glycerin, the present methods make it possible to dissolve the salt in a small amount of water. […]
# [2] = Storage stability of clindamycin phosphate solutions; type: physicochemical; details: solution in water; elevated temperatures
# Description: For the clindamycin phosphate solution, a maximum of about 6% salt is soluble in water. This solution is not stable upon long-term storage at elevated temperatures. In order to utilize the chamber in a chamber delivery system wherein the contents of a small chamber are combined with the contents of a larger chamber, compositions containing a concentration of clindamycin phosphate higher than 6% are desirable. In accordance with the present disclosure, solutions containing concentrations of clindamycin in excess of 6% in a minimum amount of water may be prepared by using co-solvents such as glycerin. Clindamycin phosphate by itself is not soluble in glycerin alone. […] Thus, the present compositions may contain a solution of water, clindamycin and glycerin, wherein the amount of water is insufficient alone to solubilize the clindamycin. The term “solubilize” as used with respect to solubilizing clindamycin refers to the ability to dissolve clindamycin and optionally with heating and stirring and maintaining clindamycin in solution at room temperature for at least 24 hours.
smiles,measurement,setting,value
CCC[C@@H]1C[C@@H](C(=O)N[C@@H]([C@H]2O[C@H](SC)[C@H](OP(=O)(O)O)[C@@H](O)[C@H]2O)[C@H](C)Cl)N(C)C1 [clindamycin phosphate],solubility in glycerin alone,"[1]; glycerin alone, no water",not soluble
same,maximum salt soluble in water,[1]; water alone,about 6%
same,stability of aqueous solution upon long-term storage,[2],not stable
